This passage reports Kd and Ki results from patent US9012457B2, “2-carboxamide-4-piperazinyl-benzofuran derivative” (AstraZeneca AB, priority 2010, dated 2015).

Structures are written as SMILES.

The target of test [1] is T1, 5-HT1B receptor (Homo sapiens, UniProt P28222). The test is described as follows: saturation binding studies, 5-HT1B receptor. The note with it: read-out: Kd of radioligand (used in calculation of Ki values).
Description: Frozen membrane preparations were thawed, homogenized with an Ultra-Turrax and mixed with SPA beads (YSI coated WGA, GE Healthcare/Amersham, Buckinghamshire, UK) in assay buffer containing 50 mM Tris-Base, 4 mM MgCl2, 4 mM CaCl2 (only 5-HT1B), 1 mM EDTA, and adjusted to pH 7.4 with HCl. The beads/membrane solution, final concentration 100 pM receptors for 5-HT1A, 300 pM receptors for 5-HT1B and 0.5 mg SPA beads/well, was pre-incubated in room temperature with stirring for 30-60 min. […] Five (log interval, 10 μM to 1 nM, final concentration) or ten serial dilutions (½-log interval, 0.1 μM to 0.0032 nM, final concentration) of compounds were prepared in DMSO from 10 mM stock solutions. The binding assays were performed in 384-well plates in a final volume of 90 μL/well with the following additions: 9 μL binding buffer; 1 μL compound/DMSO/nonspecific; 20 μL radioligand; and 60 μL beads/membrane mixture. Non-specific binding was defined by using 10 μM WAY100635 for 5-HT1A and 10 μM Methiothepin for 5-HT1B. The assay plates were incubated for 4 hours where after the plates are counted in a Wallac 1450 Microbeta Trilux counter (PerkinElmer LifeScience, US) or similar. Data from the experiments were analyzed using a four parameter logistic equation as follows: Y=Bottom+(Top−Bottom)/1+10^(Log EC50-X)nH.
The target of a further test is T2, 5-HT1A receptors (Homo sapiens, UniProt P08908).
T2 sequence (P08908 1-422): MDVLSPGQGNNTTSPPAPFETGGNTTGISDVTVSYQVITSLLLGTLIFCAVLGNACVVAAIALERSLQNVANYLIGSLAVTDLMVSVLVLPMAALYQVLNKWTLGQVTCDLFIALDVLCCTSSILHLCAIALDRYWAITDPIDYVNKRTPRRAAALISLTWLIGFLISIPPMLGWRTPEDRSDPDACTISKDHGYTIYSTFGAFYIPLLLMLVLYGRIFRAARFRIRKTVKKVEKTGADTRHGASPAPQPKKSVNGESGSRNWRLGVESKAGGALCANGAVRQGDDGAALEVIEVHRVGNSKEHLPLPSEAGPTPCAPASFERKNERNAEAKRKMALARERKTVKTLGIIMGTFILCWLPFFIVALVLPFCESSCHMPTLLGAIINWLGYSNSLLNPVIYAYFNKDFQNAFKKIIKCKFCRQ
Description: 5-HT1A receptor competition binding assay (SPA, [3H]-8-OH-DPAT).

The target of test [2] is T1, 5-HT1B receptor. The test is described as follows: 5-HT1B receptor competition binding assay (SPA, [3H]-GR125743).
Description: (§1) These assays were be used with some modifications:
(§2) For the binding assay stably transfected chinese hamster ovary (CHO) cell lines expressing 5-HT1A receptors or 5-HT1B receptors were harvested by centrifugation at 300×g for 10 min and resuspended in 10 mM Tris-HCl, 5 mM EDTA at pH 7.4. The cells were pooled, recentrifuged and resuspended before homogenisation using a Dounce homogeniser (“type B”). Cell membranes were centrifuged at 48 000×g for 10 min and then resuspended in harvesting buffer using an Ultra-Turrax T8 (IKA Labortechnik, Germany), aliquots were stored frozen in −70° C.
(§3) Frozen membrane preparations were thawed, homogenized with an Ultra-Turrax and mixed with SPA beads (YSI coated WGA, GE Healthcare/Amersham, Buckinghamshire, UK) in assay buffer containing 50 mM Tris-Base, 4 mM MgCl2, 4 mM CaCl2 (only 5-HT1B), 1 mM EDTA, and adjusted to pH 7.4 with HCl. The beads/membrane solution, final concentration 100 pM receptors for 5-HT1A, 300 pM receptors for 5-HT1B and 0.5 mg SPA beads/well, was pre-incubated in room temperature with stirring for 30-60 min. […] The assay plates were incubated for 4 hours where after the plates are counted in a Wallac 1450 Microbeta Trilux counter (PerkinElmer LifeScience, US) or similar. Data from the experiments were analyzed using a four parameter logistic equation as follows: Y=Bottom+(Top−Bottom)/1+10^(Log EC50-X)nH.

T1 sequence (P28222 whole entry): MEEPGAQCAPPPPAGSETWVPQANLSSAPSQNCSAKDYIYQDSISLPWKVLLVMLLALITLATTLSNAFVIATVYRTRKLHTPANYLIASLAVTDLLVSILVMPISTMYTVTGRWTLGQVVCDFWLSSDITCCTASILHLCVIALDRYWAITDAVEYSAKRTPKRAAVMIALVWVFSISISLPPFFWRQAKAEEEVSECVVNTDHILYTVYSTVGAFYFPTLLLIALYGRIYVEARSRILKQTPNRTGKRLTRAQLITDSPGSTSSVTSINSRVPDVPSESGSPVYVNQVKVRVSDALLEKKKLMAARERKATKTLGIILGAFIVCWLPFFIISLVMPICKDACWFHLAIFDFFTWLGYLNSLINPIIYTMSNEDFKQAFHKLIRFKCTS
Description for 5-HT1A receptors: as §1, §2, §3

With `COc1ccc(NC(=O)c2ccc(-c3ccncc3)c(C)c2)cc1N1CCN(C)CC1` [[^3H]-GR125743], the Kd (commonly a measure of binding affinity in units of concentration) at 5-HT1B receptor [1] was 0.87 nM.

On to `CNC(=O)c1cc2c(N3CCN(CCc4cccc5c4CCC(=O)N5C)CC3)cccc2o1` [compound of formula (I), N-Methyl-4-[4-[2-(1-methyl-2-oxo-3,4-dihydroquinolin-5-yl)ethyl]piperazin-1-yl]benzofuran-2-carboxamide], for which the inhibition constant (Ki) (commonly a dissociation constant, usually derived from enzyme kinetics or from competition with a known ligand) at 5-HT1A receptors came to 0.07 nM; at 5-HT1B receptor [2], 0.65 nM.
